According to publication PMC4326964, “Probing the substrate specificity of Trypanosoma brucei GlcNAc-PI de-N-acetylase with synthetic substrate analogues” (Organic & Biomolecular Chemistry, 2014):
Entries after “also recorded” stand apart in the source; their conditions may differ.

Legend:
[1] = target: T1, T. brucei GlcNAc-PI de-N-acetylase (Trypanosoma brucei brucei, UniProt Q8I8A5); test: Substrate recognition (de-N-acetylation turnover) in T. brucei cell-free system, LC-MS/MS assay; assay type: biochemical; settings: for Turnover: conversion of N-acetylated compound to free amine, 37 °C, 1 h, ND = turnover not detected, for 53 measured via d6-Ac2O derivatisation of the free amine; for Relative turnover: turnover relative to α-D-GlcpNAc-PI (1); for Substrate activity: recognised and processed (in words): N-acetylated analogue as substrate of the de-N-acetylase
T1 sequence (Q8I8A5 entry or part of it): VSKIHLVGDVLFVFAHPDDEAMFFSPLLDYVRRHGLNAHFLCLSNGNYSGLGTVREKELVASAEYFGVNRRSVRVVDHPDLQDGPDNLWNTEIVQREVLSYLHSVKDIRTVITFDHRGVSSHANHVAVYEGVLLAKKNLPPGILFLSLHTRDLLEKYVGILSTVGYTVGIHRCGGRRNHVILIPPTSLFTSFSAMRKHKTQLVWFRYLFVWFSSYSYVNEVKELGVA
Procedure: [8],[10] The N-acetylated analogues of these compounds were prepared as previously described to give compounds 47–53 (Fig. 3).
Using LC-MS/MS, multiple reaction monitoring of characteristic transitions for the N-acetylated and corresponding amine form of each compound was used to directly measure the rate of conversion of the N-acetylated compound to the free amine (Table 1). As no suitable transition was identified for the amine form of 13, the enzymatic turnover was accessed by reacting any free amine formed with d 6-Ac2O, and measuring the formation of the d 3-N-acetylated form by LC-MS/MS.
The synthesis of 1-D-6-O-(2-amino-2-deoxy-α-D-glucopyranosyl)-myo-inositol 1-(octadecyl phosphate), (4, α-D-GlcpNH2-IPC18), [15] has been described previously. The corresponding N-acetyl derivate α-D-GlcpNAc-IPC18 (3) was prepared by treatment with acetic anhydride, [13] and the concentration of stock solutions determined by measurement of the inositol content by selected ion-monitoring GC-MS. Bloodstream form Trypanosome brucei (variant MITat1.4) were isolated and membranes (cell-free system) prepared as described previously and stored at –80 °C.
Substrate recognition assays were performed using 500 pmol of α-D-GlcpNAc-PI (1) in incorporation buffer (25 mM Tris pH 8.0, 50 mM KCl, 50 mM MnCl2) and varying amounts of trypanosome cell-free system (0–15 × 10^6 cell equivalents per assay) in 96-well plates containing 100 μL final volume, and incubated at 37 °C for 1 h. The reaction was quenched and the glycolipids enriched and analyzed by LC-MS/MS as described below.
(§1) Enrichment of glycolipids was performed in a 96-well plate format. Reactions were quenched by addition of 200 μL of 5% propan-1-ol, 5 mM NH4OAc, and the glycolipids were bound to C18 resin (50 mg Isolute Array cartridge), washed three times with 200 μL 5% propan-1-ol, 5 mM NH4OAc and eluted with 100 μL 40% propan-1-ol, 5 mM NH4OAc into a 96-well collection plate.
Prior to subsequent analysis, compound 13 was dried under nitrogen, resuspended in MeOH (100 μL) and any free amine reacted with excess d 6-Ac2O (1.5 μL) in the presence of pyridine (10 μL) for 15 min. The reaction was quenched with water (50 μL), dried under nitrogen and resuspended in 100 μL 40% propan-1-ol, 5 mM NH4OAc.
(§2) Glycolipids were analyzed by liquid chromatography coupled to an electrospray tandem mass spectrometer (LC-MS/MS). Samples (40 μL) were injected directly from a 96-well plate onto a 10 × 1 mm C18 column (ACE, […]) and then eluted using a binary gradient of 5–80% propan-1-ol in 5 mM NH4OAc (Dionex Ultimate 3000). The gradient consisted of 2 min 0% B, 2–4 min 0–100% B, 4–8 min 100%, 8–9 min 100–0% B, 9–10 min 0% B where buffer A consisted of 5% propan-1-ol, 5 mM NH4OAc and buffer B 80% propan-1-ol, 5 mM NH4OAc. The glycolipids were analysed on an electrospray triple quadrapole mass spectrometer (Micromass Quattro Ultima) in multiple reaction monitoring mode.
For each pseudodisaccharide analogue (7–12), standards of the N-acetylated compound and corresponding free amine were analyzed separately in order to identify unique transitions for use in subsequent multiple reaction monitoring experiments (Table 1). The ratio of the integrals for these transitions was used to calculate the percentage of substrate conversion to product in a given sample. For compound 13, standards of the N-acetylated compound and the d 3-N-acetylated form were analyzed separately and found to produce a common fragment for use in subsequent multiple reaction monitoring experiments.

[2] = target: T1, T. brucei GlcNAc-PI de-N-acetylase; settings: previous studies; cited from earlier work
[3] = target: T1, T. brucei GlcNAc-PI de-N-acetylase; test: Inhibition of turnover of α-D-GlcpNAc-IPC18 (3) in T. brucei cell-free system, LC-MS/MS assay; assay type: biochemical; settings: inhibition of turnover of 3; tested at 100 μM
Procedure: Since the majority of the compounds were not processed by the T. brucei GlcNAc-PI de-N-acetylase, we tested their ability to inhibit the turnover of the α-D-GlcpNAc-IPC18 (3) substrate by the T. brucei GlcNAc-PI de-N-acetylase in the LC-MS/MS assay.
Inhibition assays were performed in 96-well plates in 100 μL final volume, with 1% v/v DMSO with or without inhibitor. Trypanosome cell-free system (2.5 × 10^6 cell equivalents per assay) in incorporation buffer were added to wells containing 500 pmol α-D-GlcpNAc-IPC18 (3) with or without inhibitor and incubated at 37 °C for 1 h. The reaction was quenched and the glycolipids enriched and analyzed by LC-MS/MS as described below.
as §1, §2
For inhibition assays, the turnover of the substrate α-D-GlcpNAc-IPC18 (3) was used to calculate the percentage of substrate conversion to product in a given sample. Inhibitor IC50 values were calculated using a four-parameter fit of eight-point potency curves derived from three independent experiments, and are quoted with a standard deviation.

T. brucei GPI pathway = test: Trypanosome cell-free system with [3H]-mannose labelling (HPTLC, fluorography); assay type: biochemical, Trypanosoma brucei
Source text: The ability of 49 and 48 to act as a substrate and inhibitor, respectively, of the T. brucei GPI pathway was confirmed using the trypanosome cell-free system with [^3H]-mannose labelling (Fig. 5). […] As these mannosylated compounds lack the inositol 2-OH group they cannot undergo inositol acylation, a prerequisite for the transfer of ethanolamine, and thus are not processed past the Man3-species.
Fig. 5 The trypanosome GPI biosynthesis in the cell-free system. A. The T. brucei cell-free system was incubated without exogenous substrate, with 1, α-D-GlcpNAc-PI (10 μM), or with 49 (100 μM) in the presence of GDP-[^3H]Mannose to stimulate the production of radiolabelled mannosylated GPI intermediates. B. Inhibition of the turnover of 3, α-D-GlcpNAc-IPC18 (10 μM), in the presence of 48 (100 μM). Glycolipid products were extracted, separated by high-performance thin-layer chromatography, and visualised by fluorography. DPM – dolichol-phosphate-mannose, M1 – Man1 species, M2 – Man2 species, M3 – Man3 species, A′ – EtNPMan3 species, where the identity and migration of the species depends on the glycolipid substrate employed.
The formation of GPI precursors is monitored by following the incorporation of [^3H]-mannose and then they were analysed using […] and fluorography as described previously.

SMILES	Inhibitory activity (in words) [3]	Substrate activity: recognised and processed (in words) [1]	further results
CCCCCCCCCCCCCCCC(=O)OCC(COP(=O)(O)OC1C(O)C(O)C(O)C(O)C1OC1OC(CO)C(O)C(O)C1NC(C)=O)OC(=O)CCCCCCCCCCCCCCC [Compound 1, 1-D-(2-acetamido-2-deoxy-α-D-glucopyranosyl)-myo-inositol 1-(1,2-di-O-hexadecanoyl-sn-glycerol 3-phosphate), reference compound]			Turnover [1]: 6.1 ± 0.9 pmol/10^6 cells equiv.; Relative turnover [1]: 100%; Recognition and processing by the enzyme (in words) [2]: recognised and processed
CCCCCCCCCCCCCCCCCCOP(=O)(O)OC1C(O)C(O)C(O)C(O)C1OC1OC(CO)C(O)C(O)C1NC(C)=O (stereo not shown) [Compound 3, reference compound]			Turnover [1]: 27.0 ± 6.0 pmol/10^6 cells equiv.; Relative turnover [1]: 450%
CCCCCCCCCCCCCCCC(=O)OC[C@H](COP(=O)(O)O[C@H]1[C@@H](O)[C@@H](O)[C@H](O)[C@@H](O)[C@@H]1O[C@H]1O[C@H](CO)[C@@H](O)[C@H](O)[C@H]1NC(C)=O)OC(=O)CCCCCCCCCCCCCCC [Compound 5]			Recognition and processing by the enzyme (in words) [2]: recognise and process
CCCCCCCCCCCCCCCC(=O)OC[C@H](COP(=O)(O)O[C@@H]1[C@H](O)[C@H](O)[C@@H](O)[C@H](O)[C@H]1O[C@@H]1O[C@H](CO)[C@@H](O)[C@H](O)[C@H]1NC(C)=O)OC(=O)CCCCCCCCCCCCCCC [Compound 6]			Recognition and processing by the enzyme (in words) [2]: recognised and processed; also recorded: recognise and process
CCCCCCCCCCCCCCCCCCOP(=O)(O)O[C@@H]1CCCC[C@H]1O[C@H]1O[C@H](CO)[C@@H](O)[C@H](O)[C@H]1NC(C)=O [Compound 47]	act as inhibitors		
CCCCCCCCCCCCCCCCCCOP(=O)(O)O[C@@H]1CCCC[C@H]1O[C@@H]1O[C@H](CO)[C@@H](O)[C@H](O)[C@H]1NC(C)=O [Compound 48]	act as inhibitors		Inhibition of priming of the cell-free system with 3 (T. brucei GPI pathway; 3 (α-D-GlcpNAc-IPC18) at 10 μM, inhibitor at 100 μM): efficiently prevented
CCCCCCCCCCCCCCCC(=O)OC[C@H](COP(=O)(O)O[C@@H]1CCCC[C@H]1O[C@H]1O[C@H](CO)[C@@H](O)[C@H](O)[C@H]1NC(C)=O)OC(=O)CCCCCCCCCCCCCCC [Compound 49]		both recognised and processed	Turnover [1]: 1.3 ± 0.3 pmol/10^6 cells equiv.; Relative turnover [1]: 22%; Formation of mannosylated GPI intermediates on priming the cell-free system (T. brucei GPI pathway; 49 at 100 μM, GDP-[3H]Mannose, bands sensitive to jackbean α-mannosidase): three bands corresponding to the addition of 1–3 mannose residues
CCCCCCCCCCCCCCCC(=O)OC[C@H](COP(=O)(O)O[C@@H]1CCCC[C@H]1O[C@@H]1O[C@H](CO)[C@@H](O)[C@H](O)[C@H]1NC(C)=O)OC(=O)CCCCCCCCCCCCCCC [Compound 50]	neither a substrate nor an inhibitor	neither a substrate nor an inhibitor	
CCCCCCCCCCCCCCCCCCS(=O)(=O)N[C@@H]1CCCC[C@H]1O[C@@H]1O[C@H](CO)[C@@H](O)[C@H](O)[C@H]1NC(C)=O [Compound 51]	inability	inability	
CCCCCCCCCCCCCCCCCCS(=O)(=O)N[C@@H]1CCCC[C@H]1O[C@H]1O[C@H](CO)[C@@H](O)[C@H](O)[C@H]1NC(C)=O [Compound 52]	inability	inability	
CCCCCCCCCCCCCCCCCCOP(=O)(O)O[C@@H]1CCCC[C@H]1OCC(CO)NC(C)=O (stereo partly shown) [Compound 53]	inactivity	inactivity	
